# Test results as given in US6555733B2, “Genes coding for amino acid deacetylases with specificity for N-acetyl-L-phosphinothricin, their isolation and use” (priority 1996, dated 2003).
# System: deac2 gene product
# Test: Conversion of N-acetylated amino acids by permeabilized E. coli XLI blue cells with pGK81
# Format: cell-based, Comamonas acidovorans
# Settings: 25 mM, 3 hours at 30 °C
# Method: To investigate the substrate specificity of the deac2 gene product from Comamonas acidovorans, cells of E. coli strain XLI blue permeabilized by toluene/ethanol treatment were used with and without the vector pGK81. The induction of the deac2 gene repressed by the Lac^i repressor present in this strain could be achieved by IPTG treatment. The permeabilized cells were incubated for 3 hours at 30° C. with various N-acetylated amino acids (final concentration 25 mM) and the supernatants were investigated with the aid of an amino acid analyzer. It turned out here that more than 20% of the N-acetylornithine made available was converted. For N-acetyl-phosphinothricin too, an increasing deacetylation to phosphinothricin, analogous to the concentration of N-acetylphosphinothricin employed, could be found (Table 7).
# The concentrations of the N-acetylated amino acids employed and the amino acids formed by deacetylation are indicated.
compound,measurement,value
"CC(=O)N[C@@H](CCCN)C(=O)O [N-acetyl-ornithine, N-acetylornithine]",share of substrate made available that was converted,more than 20%
